Measured values published in PubChem BioAssay AID2060604 (Molecular Pharmacology Branch, DTP, NCI, 2025).

Tested on: 379773-124-R-J2-PDC complex spheroids, viability % test/control
Assay: Anticancer human tumor 379773-124-R-J2-PDC patient-derived endometrial carcinoma cell line growth inhibition [CLK]
Conditions: for IC50: curve of first compound; for viability, T/C: stronger effect = lower value
Source text: A high-throughput screen of multi-cell type tumor spheroids was designed to identify active combinations of […] and targeted small molecules. Complex spheroids include a stromal component modeled by human endothelial cells (HUVEC) and fibroblasts modeled by human mesenchymal stem cells (MSCs). The concentration ranges selected for each drug and investigational agent were based upon clinically achievable concentrations if the clinical Cmax of the agent was known.
Compounds. The drugs and investigational agents: cirtuvivint (SM08502; NSC835563), CC-671 (NSC850746), vemurafenib (NSC761431), tapotoclax (NSC804041), sotorasib (NSC818433), adagrasib (NSC831453), MRTX-1133 (NSC836407), BAY2416964 (NSC825713), copanlisib (NSC816437), inavolisib (NSC800729), abemaciclib (NSC768073), osimertinib (NSC779217), entinostat (NSC756642), eltanexor (KPT-8602, NSC794443), venetoclax (NSC766270), ceralasertib (NSC777638), bortezomib (NSC756655), olaparib (NSC753686), talazoparib (NSC767125), alisertib (NSC759677), peposertib (NSC802822), gemcitabine (NSC613327), 5-fluorouracil (NSC19893), SN-38 (NSC673596), oxaliplatin (NSC266046), paclitaxel (NSC125973), and doxorubicin (NSC123127), were obtained from the National Cancer Institute (NCI) Developmental Therapeutics Program Chemical Repository. The FDA-approved anticancer drug set is available from the Developmental Therapeutics Program at https://dtp.cancer.gov/organization/dscb/obtaining/available plates.htm. […] The stock solutions were prepared in dimethyl sulfoxide (DMSO, Sigma-Aldrich, St. Louis, MO, cat. D2650), except for the platinum complexes which were prepared in saline (Quality Biological, Gaithersburg, MD, cat. 114-055-101), at 800-fold the tested concentration and stored at -70 degrees C prior to their use. All drugs and investigational agents were tested over a range starting from a high concentration at or near the clinical Cmax and decreasing in half-log increments. If the clinical Cmax for an agent had not been determined, the highest concentration tested was 10 microM.
Cell Culture. All cells were maintained in an incubator at 37 degrees C and 5% CO2 with 95% humidity. The PDC lines were cultured according to standard operating procedures established by the NCI PDMR. Briefly, all PDCs were thawed and cultured in Matrigel-coated flasks prepared with a working solution of 1X Ham's F-12 nutrient mix, without supplementation (Invitrogen, Waltham, MA, cat. 11765054), 100 U/mL penicillin-streptomycin (Invitrogen, cat. 15140122), and 2.5% Matrigel (Corning Inc., Corning, NY, cat. 354248) for the first three passages. The 947758-054-R-J2-PDC line was cultured in 6B/Colon 1A media, which includes advanced DMEM/F-12 (Thermo Fisher Scientific, cat. 12634028), 10 mM HEPES (Thermo Fisher Scientific, cat. 15630080), 1X GlutaMAX supplement (Thermo Fisher Scientific, cat. 35050061), 0.1 mg/mL primocin (InvivoGen, cat. ant-pm-2), 10% defined fetal bovine serum, heat inactivated (HyClone Laboratories Inc., cat. SH30070.03HI), 1.25 mM N-Acetyl-L-cysteine (Sigma-Aldrich, cat. A9165), 10 mM nicotinamide (Sigma-Aldrich, cat. N0636), 1X B-27 supplement (Thermo Fisher Scientific, cat. 17504044), 1X N-2 supplement (Thermo Fisher Scientific, cat. 17502048), and 10 microM Y-27632 dihydrochloride (Tocris Bioscience, cat. 1254). The 876862-298-R-J1-PDC was cultured in 6E media, which includes all 6B/Colon 1A media components plus 50% L-WRN conditioned media (ATCC, cat. CRL-3276), 50 ng/mL recombinant human EGF recombinant protein (hEGF; Thermo Fisher Scientific, cat. PHG0311), 10 ng/mL recombinant human fibroblast growth factor 10 (hGFG-10; PeproTech, cat. 100-26), 1 ng/mL recombinant human fibroblast growth factor 2 (hFGF-2; PeproTech, cat. 100-18B), and 1 µM prostaglandin E2 (PGE2; Tocris, cat. 2296). The 227483-062-R1-J1-PDC line was cultured in Panc media, containing all 6E components except hFGF-2, with the addition of 500 nM SB-431542 (Selleckchem, cat. S1067) and 10 nM gastrin (Tocris, cat. 3006). […]
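Also: compound exposure lasted seven days before the viability readout.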
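For viability, T/C in this document: 100% = DMSO vehicle control wells.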

- IC50 (second compound 0.0316 µM): 8070 nM
- IC50 (second compound 0.1 µM): < 31.6 nM
- IC50 (second compound 0.316 µM): < 31.6 nM
- IC50 (second compound 1 µM): < 31.6 nM
- IC50 (second compound 3.16 µM): < 31.6 nM
- IC50 (second compound 10 µM): < 31.6 nM
Structure (SMILES): CCCS(=O)(=O)Nc1ccc(F)c(C(=O)c2c[nH]c3ncc(-c4ccc(Cl)cc4)cc23)c1F + CNC(=O)c1ccc(Nc2nc(OC3CCCC3)c3c(-c4ccc5nc(C)oc5c4)c[nH]c3n2)c(OC)c1
- viability, T/C (second compound 0.0316 µM, first compound 0.0316 µM): 74.1%
- viability, T/C (second compound 0.0316 µM, first compound 0.1 µM): 81.7%
- viability, T/C (second compound 0.0316 µM, first compound 0.316 µM): 82.3%
- viability, T/C (second compound 0.0316 µM, first compound 1 µM): 91.5%
- viability, T/C (second compound 0.0316 µM, first compound 3.16 µM): 72.3%
- viability, T/C (second compound 0.0316 µM, first compound 10 µM): 44.9%
- viability, T/C (second compound 0.1 µM, first compound 0.0316 µM): 42%
- viability, T/C (second compound 0.1 µM, first compound 0.1 µM): 39%
- viability, T/C (second compound 0.1 µM, first compound 0.316 µM): 34.4%
- viability, T/C (second compound 0.1 µM, first compound 1 µM): 41.1%
- viability, T/C (second compound 0.1 µM, first compound 3.16 µM): 38%
- viability, T/C (second compound 0.1 µM, first compound 10 µM): 17.4%
- viability, T/C (second compound 0.316 µM, first compound 0.0316 µM): 39.5%
- viability, T/C (second compound 0.316 µM, first compound 0.1 µM): 30.1%
- viability, T/C (second compound 0.316 µM, first compound 0.316 µM): 39%
- viability, T/C (second compound 0.316 µM, first compound 1 µM): 38.6%
- viability, T/C (second compound 0.316 µM, first compound 3.16 µM): 39.8%
- viability, T/C (second compound 0.316 µM, first compound 10 µM): 22.2%
- viability, T/C (second compound 1 µM, first compound 0.0316 µM): 38.7%
- viability, T/C (second compound 1 µM, first compound 0.1 µM): 35.2%
- viability, T/C (second compound 1 µM, first compound 0.316 µM): 31%
- viability, T/C (second compound 1 µM, first compound 1 µM): 31.6%
- viability, T/C (second compound 1 µM, first compound 3.16 µM): 35.8%
- viability, T/C (second compound 1 µM, first compound 10 µM): 19%
- viability, T/C (second compound 3.16 µM, first compound 0.0316 µM): 35%
- viability, T/C (second compound 3.16 µM, first compound 0.1 µM): 36.7%
- viability, T/C (second compound 3.16 µM, first compound 0.316 µM): 35.7%
- viability, T/C (second compound 3.16 µM, first compound 1 µM): 32.3%
- viability, T/C (second compound 3.16 µM, first compound 3.16 µM): 32.4%
- viability, T/C (second compound 3.16 µM, first compound 10 µM): 18.2%
- viability, T/C (second compound 10 µM, first compound 0.0316 µM): 33.5%
- viability, T/C (second compound 10 µM, first compound 0.1 µM): 27.9%
- viability, T/C (second compound 10 µM, first compound 0.316 µM): 29.6%
- viability, T/C (second compound 10 µM, first compound 1 µM): 39.1%
- viability, T/C (second compound 10 µM, first compound 3.16 µM): 40.4%
- viability, T/C (second compound 10 µM, first compound 10 µM): 13.2%
